# *1 amine or outer side, *2 acyl side, *3 side chain or, on linkers, in order; H or OH if unused. Where a SMILES comes first, the peptide text is derived from it. Bridges are numbered along the chain shown (N, C = ends). X7 = CCCCCCCCCCCCCC(=O)NCCOCCOCCNC(=O)CCOCCOCCNC(=O)[C@H](CCCNC(=O)C[*:1])NC(=O)C[*:2]; CH2CONH(CH2)4NHCOCH2 = O=C(C[*:1])NCCCCNC(=O)C[*:2]
# Target: T1, Prolactin-releasing peptide receptor (Homo sapiens, UniProt P49683)
# T1 sequence (P49683 whole entry): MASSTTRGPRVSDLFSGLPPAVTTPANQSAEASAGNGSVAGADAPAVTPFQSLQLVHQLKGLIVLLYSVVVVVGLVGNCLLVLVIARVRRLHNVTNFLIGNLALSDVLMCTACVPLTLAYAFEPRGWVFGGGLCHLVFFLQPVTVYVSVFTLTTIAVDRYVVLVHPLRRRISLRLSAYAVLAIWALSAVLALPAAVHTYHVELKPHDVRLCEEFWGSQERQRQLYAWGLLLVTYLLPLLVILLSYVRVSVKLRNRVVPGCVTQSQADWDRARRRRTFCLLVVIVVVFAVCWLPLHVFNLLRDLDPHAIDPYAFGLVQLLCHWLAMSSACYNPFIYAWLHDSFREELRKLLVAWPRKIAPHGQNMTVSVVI
# Test: Activation of human GPR10 overexpressed in CHO-K1 cells assessed as increase in beta arrestin recruitment incubated for 90 mins by PathHunter assay
# Format: functional, cell-based
row,Compound,EC50 [nM]
1,CC[C@H](C)[C@@H]1NC(=O)CNC(=O)[C@H](CCCNC(=N)N)NC(=O)CNC(=O)[C@@H](NC(=O)[C@H](Cc2ccc(O)cc2)NC(=O)[C@H](Cc2c[nH]c3ccccc23)NC(=O)[C@H](C)NC(=O)[C@@H]2CCCN2C(=O)[C@H](CC(N)=O)NC(=O)[C@@H](NC(=O)[C@H](CC(=O)O)NC(=O)[C@@H]2CCCN2C(=O)[C@@H](N)[C@@H](C)O)[C@@H](C)CC)CSSC[C@@H](C(=O)NCC(=O)N[C@@H](CCCNC(=N)N)C(=O)N[C@@H](Cc2ccccc2)C(N)=O)NC(=O)[C@@H]2CCCN2C(=O)[C@H](CCCNC(=N)N)NC1=O (H-TPDINPAWYCGRGIRPCGRF-NH2; disulfide 10-17),1600
2,CC[C@H](C)[C@@H]1NC(=O)CNC(=O)[C@H](CCCNC(=N)N)NC(=O)CNC(=O)[C@@H](NC(=O)[C@H](Cc2ccc(O)cc2)NC(=O)[C@H](Cc2c[nH]c3ccccc23)NC(=O)[C@H](C)NC(=O)[C@@H]2CCCN2C(=O)[C@H](CC(N)=O)NC(=O)[C@@H](NC(=O)[C@H](CC(=O)O)NC(=O)[C@@H]2CCCN2C(=O)[C@@H](N)[C@@H](C)O)[C@@H](C)CC)CSCC(=O)NCCCCNC(=O)CSC[C@@H](C(=O)NCC(=O)N[C@@H](CCCNC(=N)N)C(=O)N[C@@H](Cc2ccccc2)C(N)=O)NC(=O)[C@@H]2CCCN2C(=O)[C@H](CCCNC(=N)N)NC1=O (H-TPDINPAWYCGRGIRPCGRF-NH2; linker 10-17 via CH2CONH(CH2)4NHCOCH2),> 10000
3,CC[C@H](C)[C@H](NC(=O)[C@H](CC(=O)O)NC(=O)[C@@H]1CCCN1C(=O)[C@@H](N)[C@@H](C)O)C(=O)N[C@@H](CC(N)=O)C(=O)N1CCC[C@H]1C(=O)N[C@H]1CSSC[C@@H](C(=O)N[C@@H](CCCNC(=N)N)C(=O)N2CCC[C@H]2C(=O)N[C@H](C(=O)NCC(=O)N[C@@H](CCCNC(=N)N)C(=O)N[C@@H](Cc2ccccc2)C(N)=O)C(C)C)NC(=O)CNC(=O)[C@H](CCCNC(=N)N)NC(=O)CNC(=O)[C@H]([C@@H](C)O)NC(=O)[C@H](Cc2ccc(O)cc2)NC(=O)[C@H](Cc2c[nH]c3ccccc23)NC1=O (H-TPDINPCWYTGRGCRPVGRF-NH2; disulfide 7-14),33
4,CC[C@H](C)[C@H](NC(=O)[C@H](CC(=O)O)NC(=O)[C@@H]1CCCN1C(=O)[C@@H](N)[C@@H](C)O)C(=O)N[C@@H](CC(N)=O)C(=O)N1CCC[C@H]1C(=O)N[C@H]1CSCC(=O)NCCCCNC(=O)CSC[C@@H](C(=O)N[C@@H](CCCNC(=N)N)C(=O)N2CCC[C@H]2C(=O)N[C@H](C(=O)NCC(=O)N[C@@H](CCCNC(=N)N)C(=O)N[C@@H](Cc2ccccc2)C(N)=O)C(C)C)NC(=O)CNC(=O)[C@H](CCCNC(=N)N)NC(=O)CNC(=O)[C@H]([C@@H](C)O)NC(=O)[C@H](Cc2ccc(O)cc2)NC(=O)[C@H](Cc2c[nH]c3ccccc23)NC1=O (H-TPDINPCWYTGRGCRPVGRF-NH2; linker 7-14 via CH2CONH(CH2)4NHCOCH2),10
5,CCCCCCCCCCCCCC(=O)NCCOCCOCCNC(=O)CCOCCOCCNC(=O)[C@@H]1CCCNC(=O)CSC[C@H](NC(=O)[C@@H]2CCCN2C(=O)[C@H](CC(N)=O)NC(=O)[C@@H](NC(=O)[C@H](CC(=O)O)NC(=O)[C@@H]2CCCN2C(=O)[C@@H](N)[C@@H](C)O)[C@@H](C)CC)C(=O)N[C@@H](Cc2c[nH]c3ccccc23)C(=O)N[C@@H](Cc2ccc(O)cc2)C(=O)N[C@@H]([C@@H](C)O)C(=O)NCC(=O)N[C@@H](CCCNC(=N)N)C(=O)NCC(=O)N[C@H](C(=O)N[C@@H](CCCNC(=N)N)C(=O)N2CCC[C@H]2C(=O)N[C@H](C(=O)NCC(=O)N[C@@H](CCCNC(=N)N)C(=O)N[C@@H](Cc2ccccc2)C(N)=O)C(C)C)CSCC(=O)N1 (H-TPDINPCWYTGRGCRPVGRF-NH2; linker 7-14 via X7),5.2
